SMILES strings stand for the structures.

T1 sequence (Q9JI35 whole entry): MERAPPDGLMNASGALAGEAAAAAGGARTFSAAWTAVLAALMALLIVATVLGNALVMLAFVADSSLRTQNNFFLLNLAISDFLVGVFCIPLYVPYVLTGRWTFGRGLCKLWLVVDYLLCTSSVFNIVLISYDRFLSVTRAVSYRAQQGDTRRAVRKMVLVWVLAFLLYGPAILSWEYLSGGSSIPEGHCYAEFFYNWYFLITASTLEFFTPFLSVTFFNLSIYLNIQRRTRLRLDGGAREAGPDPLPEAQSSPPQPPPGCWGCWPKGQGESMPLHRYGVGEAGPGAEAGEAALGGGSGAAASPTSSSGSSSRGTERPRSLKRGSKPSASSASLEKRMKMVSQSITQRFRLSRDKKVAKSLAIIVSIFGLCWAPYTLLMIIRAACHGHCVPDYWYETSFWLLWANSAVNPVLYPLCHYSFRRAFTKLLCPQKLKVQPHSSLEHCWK

One assay has as its target T1, H3 receptor (Cavia porcellus, UniProt Q9JI35).
T1 construct: The source of the H3 receptors in this experiment was guinea pig brain; from tissue; host or cells: guinea pig brain membranes
In words: H3 Receptor Binding Assay (displacement of [3H]R-α-methylhistamine or [3H]-N-methylhistamine). Particulars: guinea pig brain membranes; 3 nM [3H]R-α-methylhistamine or [3H]-N-methylhistamine; 30°, 30 min; duplicate, standard error less than 10%. The method, then: The compounds of this invention are either agonists or antagonists of the histamine H3 receptor. […] The animals used weighed 400-600 g. The tissue was homogenized using a Polytron in a solution of 50 mM Tris, pH 7.5. The final concentration of tissue in the homogenization buffer was 10% w/v. The homogenates were centrifuged at 1000×g for 10 min. in order to remove clumps of tissue and debris. […] The membranes were frozen and stored at -70° C. until needed. All compounds to be tested were dissolved in DMSO and then diluted into the binding buffer (50 mM Tris, pH 7.5) such that the final concentration was 2 μg/ml with 0.1% DMSO. Membranes were then added (400 μg of protein) to the reaction tubes. […] Bound ligand was separated from unbound ligand by filtration, and the amount of radioactive ligand bound to the membranes was quantitated by liquid scintillation spectrometry.
With `O=C(CCN1CCC(CCc2cnc[nH]2)C1)Nc1ccc(Cl)cc1` (centres unmarked) [Compound 45], the Ki turned out to be 0.9 nM.

In turn, `O=S(=O)(c1ccc(Cl)cc1)N1CCC(Cc2cnc[nH]2)CC1` [Compound 78] gave a Ki of 150 nM.

In the case of `c1ccc(OCCCN2CCC(Cc3cnc[nH]3)CC2)cc1` [Compound 79], the Ki was 4 nM.

`O=C(CCN1CCC(Cc2cnc[nH]2)CC1)Nc1cccc(Cl)c1` [Compound 81] came in with a Ki of 0.2 nM.

Compound `O=C(CCN1CCC(Cc2c[nH]cn2)CC1)NCCc1ccc(Cl)cc1` [Compound 82] came in with a Ki of 0.7 nM.

For `O=C(CCN1CCC(Cc2cnc[nH]2)CC1)Nc1cc(Cl)cc(Cl)c1` [Compound 83], the Ki amounted to 0.7 nM.

`O=C(CCN1CCC(Cc2cnc[nH]2)CC1)Nc1ccc(Cl)cc1` [Compound 84] returned a Ki of 0.4 nM.

`O=C(Nc1cc(Cl)cc(Cl)c1)N1CCC(Cc2cnc[nH]2)CC1` [Compound 85] came in with a Ki of 220 nM.

Take `O=C(CCOc1ccccc1)N1CCC(Cc2cnc[nH]2)CC1` [Compound 86]: affinity was put at a Ki of 5 nM.

For `O=C(CCOc1ccc(Cl)cc1)N1CCC(Cc2cnc[nH]2)CC1` [Compound 87], the Ki was found to be 9 nM.

As to `Clc1ccc(OCCCN2CCC(Cc3cnc[nH]3)CC2)cc1` [Compound 88], the Ki worked out at 9 nM.

With `O=C(CCN1CCC(Cc2cnc[nH]2)CC1)Nc1ccc(I)cc1` [Compound 89], the affinity corresponds to a Ki of 5 nM.

For `O=C(CN1CCC(Cc2cnc[nH]2)CC1)Nc1ccc(Cl)cc1` [Compound 90], the affinity corresponds to a Ki of 90 nM.

Regarding `O=C(Nc1cccc(Cl)c1)N1CCC(Cc2cnc[nH]2)CC1` [Compound 91], the Ki is 20 nM.

Take `O=C(Nc1ccc(Cl)cc1)N1CCC(Cc2cnc[nH]2)CC1` [Compound 92]: the Ki worked out at 160 nM.

Compound `O=C(CCc1ccc(Cl)cc1)N1CCC(Cc2cnc[nH]2)CC1` [Compound 93] showed a Ki of 40 nM.

`O=C(CCN1CCC(Cc2c[nH]cn2)CC1)Nc1cccc(F)c1` [Compound 94] gave a Ki of 0.1 nM.

In turn, `O=C(CC(=O)N1CCC(Cc2cnc[nH]2)CC1)Nc1cccc(Cl)c1` [Compound 95] displayed a Ki of 50 nM.

As for `O=C(CCCc1ccccc1)N1CCC(Cc2cnc[nH]2)CC1` [Compound 96], the affinity corresponds to a Ki of 8 nM.

Compound `O=S(=O)(c1ccc(OC(F)(F)F)cc1)N1CCC(CCc2cnc[nH]2)C1` (centres unmarked) [Compound 97] yielded a Ki of 58 nM.

Compound `FC(F)(F)c1ccc(NCCCN2CCC(CCc3cnc[nH]3)CC2)cc1` [Compound 114] returned a Ki of 60 nM.

Consider `O=C(Cc1ccc(Cl)c(Cl)c1)N1CCC(CCc2cnc[nH]2)CC1` [Compound 115], for which affinity was put at a Ki of 57 nM.

In the case of `O=C(CCN1CCC(CCc2cnc[nH]2)CC1)Nc1ccc(Cl)cc1` [Compound 116], the inhibition constant (Ki) came to 11 nM.

Take `O=C(CCN1CCC(CCc2cnc[nH]2)CC1)Nc1ccc(C(F)(F)F)cc1` [Compound 117]: affinity was put at a Ki of 50 nM.

`O=C(Nc1cccc(Cl)c1)N1CCC(CCc2cnc[nH]2)CC1` [Compound 118]: the Ki amounted to 210 nM.

The test system of another assay is H3 receptors in rat brain.
Assay: not given
Particulars: cited from Arrang et al.; cited from earlier work.
Regarding `NCCc1c[nH]cn1` [histamine], the “maximal inhibition of release” value is reported as “approximately 60%”.

The record behind these values is patent US6100279A, “Imidazoylalkyl substituted with a five, six or seven membered heterocyclic ring containing one nitrogen atom” (Schering Corporation, priority 1998, dated 2000).
